The results in this text go back to US20230159569A1, “DUAL HDAC6/PROTEASOME INHIBITORS, AND METHODS OF USE THEREOF” (UNIVERSITY OF MARYLAND, BALTIMORE, priority 2021, published 2023).

In general, IC50 refers to the concentration needed to halve the response being measured. As a reminder, the inhibition is the relative decrease from the control value, in per cent.

The target of one experiment is T1, HDAC6 (Homo sapiens, UniProt Q9UBN7).
T1 sequence (Q9UBN7 1-1215): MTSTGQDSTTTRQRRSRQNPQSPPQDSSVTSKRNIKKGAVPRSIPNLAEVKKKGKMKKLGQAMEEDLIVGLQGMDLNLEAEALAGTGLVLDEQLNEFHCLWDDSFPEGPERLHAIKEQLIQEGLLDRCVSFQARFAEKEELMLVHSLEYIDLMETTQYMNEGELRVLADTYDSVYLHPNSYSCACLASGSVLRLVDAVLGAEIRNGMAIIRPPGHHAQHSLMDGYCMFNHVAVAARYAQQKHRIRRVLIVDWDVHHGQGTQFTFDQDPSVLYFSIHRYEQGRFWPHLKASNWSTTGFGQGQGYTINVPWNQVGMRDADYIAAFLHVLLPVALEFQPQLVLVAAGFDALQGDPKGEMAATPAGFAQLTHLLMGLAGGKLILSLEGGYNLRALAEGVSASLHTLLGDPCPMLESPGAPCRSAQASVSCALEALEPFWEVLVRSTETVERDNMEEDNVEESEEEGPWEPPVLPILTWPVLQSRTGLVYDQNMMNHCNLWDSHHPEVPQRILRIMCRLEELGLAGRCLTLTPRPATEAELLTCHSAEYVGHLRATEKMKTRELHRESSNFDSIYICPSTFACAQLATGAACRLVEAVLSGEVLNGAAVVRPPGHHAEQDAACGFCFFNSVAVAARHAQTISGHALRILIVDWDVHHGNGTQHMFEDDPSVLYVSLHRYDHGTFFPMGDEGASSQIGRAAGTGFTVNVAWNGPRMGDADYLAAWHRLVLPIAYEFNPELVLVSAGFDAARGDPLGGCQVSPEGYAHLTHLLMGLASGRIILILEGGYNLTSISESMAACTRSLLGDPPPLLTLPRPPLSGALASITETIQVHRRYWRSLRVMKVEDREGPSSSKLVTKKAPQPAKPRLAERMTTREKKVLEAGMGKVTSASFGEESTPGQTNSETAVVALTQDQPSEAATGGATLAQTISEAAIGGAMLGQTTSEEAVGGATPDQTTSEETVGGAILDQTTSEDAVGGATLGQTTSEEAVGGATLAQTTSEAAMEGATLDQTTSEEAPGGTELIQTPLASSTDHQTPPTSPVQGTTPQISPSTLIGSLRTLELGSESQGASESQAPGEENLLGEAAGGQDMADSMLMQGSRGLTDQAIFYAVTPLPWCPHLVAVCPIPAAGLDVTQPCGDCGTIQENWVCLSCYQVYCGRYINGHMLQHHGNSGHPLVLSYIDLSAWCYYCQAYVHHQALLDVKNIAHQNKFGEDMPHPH
Nature of the experiment: HDAC activity assay (microfluidics mobility shift), HDAC6. The format is biochemical. The conditions noted are these: for HDAC1/HDAC6 (HDAC1 IC50/HDAC6 IC50, selectivity for HDAC6) / IC50: covalent dual inhibitors; for inhibition at 1 µM: compound concentration 1 μM, non-covalent dual inhibitors. On the procedure:
(§1) HDAC ACTIVITY ASSAYS: HDAC activity is measured using a microfluidics mobility shift platform. A fluorescently labeled substrate is reacted with the enzyme along with addition of test compounds followed by reading through microfluidic chips. Enzyme activity is determined through quantitative comparison of the […] that results from enzymatic activity.
(§2) The concentration of each non-covalent inhibitor compound tested in this study was 1 μM.

The target of the next experiment is HDAC1 (Homo sapiens, UniProt Q13547). Nature of the experiment: HDAC activity assay (microfluidics mobility shift), HDAC1. The format is biochemical. The following applies: compound concentration 1 μM; non-covalent dual inhibitors. On the procedure: as §1, §2
Sequence of HDAC1 (Q13547 whole entry): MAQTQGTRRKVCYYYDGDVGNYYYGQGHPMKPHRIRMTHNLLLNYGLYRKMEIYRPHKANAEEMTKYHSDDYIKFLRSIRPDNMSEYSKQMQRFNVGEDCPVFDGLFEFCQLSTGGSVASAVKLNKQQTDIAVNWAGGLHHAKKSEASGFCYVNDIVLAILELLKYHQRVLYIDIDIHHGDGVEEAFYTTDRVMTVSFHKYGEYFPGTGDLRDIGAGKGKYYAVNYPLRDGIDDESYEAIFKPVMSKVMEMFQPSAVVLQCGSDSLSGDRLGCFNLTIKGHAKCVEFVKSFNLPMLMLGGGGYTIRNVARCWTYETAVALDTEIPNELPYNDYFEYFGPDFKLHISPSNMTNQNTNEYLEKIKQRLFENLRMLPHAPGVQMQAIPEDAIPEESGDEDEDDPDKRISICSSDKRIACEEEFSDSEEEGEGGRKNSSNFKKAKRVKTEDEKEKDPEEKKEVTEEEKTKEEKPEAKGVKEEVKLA

For the compound `CC(C)C[C@H](NC(=O)[C@H](Cc1ccccc1)NC(=O)c1ccc(C(=O)NO)cc1)B1OC2C[C@H]3C[C@H](C3(C)C)[C@@]2(C)O1` (stereo partly drawn) [AMC-3-017], on HDAC6, the “HDAC1/HDAC6 (HDAC1 IC50/HDAC6 IC50, selectivity for HDAC6)” value was determined as 14.3 and the IC50 is 198 nM.
For `CCNC(=O)ONC(=O)c1ccc(C(=O)N[C@@H](Cc2ccccc2)C(=O)N[C@@H](CC(C)C)B2OC3C[C@H]4C[C@H](C4(C)C)[C@@]3(C)O2)cc1` (stereo partly drawn) [AMC-3-019], in that order: greater than 3.69 and 8120 nM.
Turning to `C[C@H](NC(=O)[C@H](CC(=O)NCC(C)(C)C)NC(=O)c1ccc(C(=O)O)cc1)C(=O)NCc1ccc(F)cc1F` [AMC-2-225], the values for the inhibition at 1 µM at HDAC1 and on HDAC6 were -3% and 4%, respectively.
On to `C[C@H](NC(=O)[C@H](CC(=O)NCC(C)(C)C)NC(=O)CCCCCCC(=O)O)C(=O)NCc1ccc(F)cc1F` [AMC-2-204], for which the inhibition at 1 µM at HDAC1 was 3%; on HDAC6 it was 8%.
In the case of `C[C@H](NC(=O)[C@H](CC(=O)NCC(C)(C)C)NC(=O)CCC(=O)Nc1ccc(C(=O)NO)cc1)C(=O)NCc1ccc(F)cc1F` [AMC-2-036], the values for the inhibition at 1 µM on HDAC1 and at HDAC6 were 61% and 95%, respectively. The “potency and selectivity for HDAC6” value at HDAC6 (FIG. 11, fold improvement over HDAC1 inhibition) is “highly potent”.
`CC(C)C[C@H](NC(=O)[C@H](Cc1ccccc1)NC(=O)c1ccc(/C=C/C(=O)NO)cc1)B1OC2C[C@H]3C[C@H](C3(C)C)[C@@]2(C)O1` (stereo partly drawn) [AMC-3-041]: on HDAC6, the “HDAC1/HDAC6 (HDAC1 IC50/HDAC6 IC50, selectivity for HDAC6)” value came to 0.93 and the concentration for half-maximal inhibition (IC50) amounted to 61 nM.
Consider `COC(=O)c1ccc(C(=O)N[C@@H](CC(=O)NCC(C)(C)C)C(=O)N[C@@H](C)C(=O)NCc2ccc(F)cc2F)cc1` [AMC-2-152], for which the inhibition at 1 µM at HDAC1 stood at 3%; on HDAC6, 18%.
Consider `CC(C)C[C@H](NC(=O)CNC(=O)c1ccc(C(=O)NOC(=O)NCc2ccccc2)cc1)B1OC2C[C@H]3C[C@H](C3(C)C)[C@@]2(C)O1` (stereo partly drawn) [AMC-3-047], for which, on HDAC6, the “HDAC1/HDAC6 (HDAC1 IC50/HDAC6 IC50, selectivity for HDAC6)” value is recorded as 8.77 and the IC50 came out at 3420 nM.
With `CC(C)C[C@H](NC(=O)CNC(=O)c1ccc(C(=O)NOC(=O)Nc2ccccc2)cc1)B1OC2C[C@H]3C[C@H](C3(C)C)[C@@]2(C)O1` (stereo partly drawn) [AMC-3-030], at HDAC6, the “HDAC1/HDAC6 (HDAC1 IC50/HDAC6 IC50, selectivity for HDAC6)” value is listed as greater than 33.9 and the IC50 is 884 nM.
As for `CC(C)C[C@H](NC(=O)CNC(=O)c1ccc(C(=O)NO)cc1)B1OC2C[C@H]3C[C@H](C3(C)C)[C@@]2(C)O1` (stereo partly drawn) [AMC-3-031], at HDAC6, the “HDAC1/HDAC6 (HDAC1 IC50/HDAC6 IC50, selectivity for HDAC6)” value came to 20.4 and the 50% inhibitory concentration (IC50) was found to be 258 nM.
Take `C[C@H](NC(=O)[C@H](CC(=O)NCC(C)(C)C)NC(=O)c1ccc(C(=O)Nc2ccccc2N)cc1)C(=O)NCc1ccc(F)cc1F` [AMC-2-091]: the inhibition at 1 µM came out at 65% on HDAC1 and 13% at HDAC6.
Regarding `CCNC(=O)ONC(=O)c1ccc(C(=O)NCC(=O)N[C@@H](CC(C)C)B2OC3C[C@H]4C[C@H](C4(C)C)[C@@]3(C)O2)cc1` (stereo partly drawn) [AMC-3-048], at HDAC6, the “HDAC1/HDAC6 (HDAC1 IC50/HDAC6 IC50, selectivity for HDAC6)” value was greater than 5.58 and the IC50 came out at 5380 nM.
Take `C[C@H](NC(=O)[C@H](CC(=O)NCC(C)(C)C)NC(=O)CCCCCCC(=O)NO)C(=O)NCc1ccc(F)cc1F` [AMC-2-067]: the inhibition at 1 µM on HDAC1 was 74%; on HDAC6, 86%.
Regarding `C[C@H](NC(=O)[C@H](CC(=O)NCC(C)(C)C)NC(=O)C(=O)c1c[nH]c2ccccc12)C(=O)NCc1ccc(F)cc1F` [AMC-2-052], the inhibition at 1 µM on HDAC1 is 41%; on HDAC6 it was 59%.
Turning to `CC(C)C[C@H](NC(=O)[C@H](Cc1ccccc1)NC(=O)c1ccc(C(=O)NOC2CCCCO2)cc1)B1OC2C[C@H]3C[C@H](C3(C)C)[C@@]2(C)O1` (stereo partly drawn) [AMC-2-248], the IC50 at HDAC6 is greater than 30000 nM.
On to `CCNC(=O)ONC(=O)/C=C/c1ccc(C(=O)NCC(=O)N[C@@H](CC(C)C)B2OC3C[C@H]4C[C@H](C4(C)C)[C@@]3(C)O2)cc1` (stereo partly drawn) [AMC-3-055], for which, on HDAC6, the “HDAC1/HDAC6 (HDAC1 IC50/HDAC6 IC50, selectivity for HDAC6)” value is on record as 2.30 and the 50% inhibitory concentration (IC50) was found to be 1150 nM.
Regarding `COC(=O)CCCCCCC(=O)N[C@@H](CC(=O)NCC(C)(C)C)C(=O)N[C@@H](C)C(=O)NCc1ccc(F)cc1F` [AMC-2-198], the results for the inhibition at 1 µM at HDAC1 and on HDAC6 were 1% and 8%, respectively.
As for `CC(C)C[C@H](NC(=O)[C@H](Cc1ccccc1)NC(=O)c1ccc(C(=O)NOC(=O)NCc2ccccc2)cc1)B1OC2C[C@H]3C[C@H](C3(C)C)[C@@]2(C)O1` (stereo partly drawn) [AMC-3-033], at HDAC6, the “HDAC1/HDAC6 (HDAC1 IC50/HDAC6 IC50, selectivity for HDAC6)” value was 4.75 and the IC50 is 6320 nM.
